Data from PubChem BioAssay AID1259407 (Chemical Carcinogenesis Research Information System (CCRIS), 2018).
Activity calls are given as the source filed them. No rule for the calls is given here.

Test system: CCRIS mutagenicity, Ames/micronucleus/aberration tests
Assay: CCRIS mutagenicity studies
[1] = Test System: AMES SALMONELLA TYPHIMURIUM, Strain/Indicator: TA100, Metabolic Activation: NONE, Method: PREINCUBATION
[2] = Test System: AMES SALMONELLA TYPHIMURIUM, Strain/Indicator: TA1535, Metabolic Activation: NONE, Method: PREINCUBATION
[3] = Test System: AMES SALMONELLA TYPHIMURIUM, Strain/Indicator: TA1537, Metabolic Activation: NONE, Method: PREINCUBATION
[4] = Test System: AMES SALMONELLA TYPHIMURIUM, Strain/Indicator: TA98, Metabolic Activation: NONE, Method: PREINCUBATION

O=C1C=Cc2ccccc2C1=O
mutagenic call (Test System: AMES SALMONELLA TYPHIMURIUM, Strain/Indicator: TA97, Metabolic Activation: NONE, Method: PREINCUBATION): active; positive | mutagenic call (Test System: AMES SALMONELLA TYPHIMURIUM, Strain/Indicator: TA97, Metabolic Activation: RAT, LIVER, S-9, PHENOBARBITAL AND 5,6-BENZOFLAVONE, Method: PREINCUBATION): inactive; negative | mutagenic call (Test System: AMES SALMONELLA TYPHIMURIUM, Strain/Indicator: TA97A, Metabolic Activation: NONE, Method: PREINCUBATION): active; positive | mutagenic call (Test System: AMES SALMONELLA TYPHIMURIUM, Strain/Indicator: TA98, Metabolic Activation: RAT, LIVER, S-9, PHENOBARBITAL AND 5,6-BENZOFLAVONE, Method: PREINCUBATION): inactive; negative | mutagenic call [1]: active; positive | mutagenic call (Test System: AMES SALMONELLA TYPHIMURIUM, Strain/Indicator: TA100, Metabolic Activation: RAT, LIVER, S-9, PHENOBARBITAL AND 5,6-BENZOFLAVONE, Method: PREINCUBATION): active; positive | mutagenic call (Test System: AMES SALMONELLA TYPHIMURIUM, Strain/Indicator: TA102, Metabolic Activation: RAT, LIVER, S-9, PHENOBARBITAL AND 5,6-BENZOFLAVONE, Method: PREINCUBATION): inactive; negative | mutagenic call (Test System: AMES SALMONELLA TYPHIMURIUM, Strain/Indicator: TA104, Metabolic Activation: NONE, Method: PREINCUBATION): active; positive | mutagenic call (Test System: AMES SALMONELLA TYPHIMURIUM, Strain/Indicator: TA104, Metabolic Activation: RAT, LIVER, S-9, PHENOBARBITAL AND 5,6-BENZOFLAVONE, Method: PREINCUBATION): active; positive | mutagenic call [2]: inactive; negative | mutagenic call (Test System: AMES SALMONELLA TYPHIMURIUM, Strain/Indicator: TA1535, Metabolic Activation: RAT, LIVER, S-9, PHENOBARBITAL AND 5,6-BENZOFLAVONE, Method: PREINCUBATION): inactive; negative | mutagenic call [3]: inactive; negative | mutagenic call (Test System: AMES SALMONELLA TYPHIMURIUM, Strain/Indicator: TA1537, Metabolic Activation: RAT, LIVER, S-9, PHENOBARBITAL AND 5,6-BENZOFLAVONE, Method: PREINCUBATION): inactive; negative | mutagenic call (Test System: AMES SALMONELLA TYPHIMURIUM, Strain/Indicator: TA1538, Metabolic Activation: NONE, Method: PREINCUBATION): inactive; negative | mutagenic call (Test System: AMES SALMONELLA TYPHIMURIUM, Strain/Indicator: TA1538, Metabolic Activation: RAT, LIVER, S-9, PHENOBARBITAL AND 5,6-BENZOFLAVONE, Method: PREINCUBATION): inactive; negative | mutagenic call (Test System: AMES SALMONELLA TYPHIMURIUM, Strain/Indicator: TA2637, Metabolic Activation: NONE, Method: PREINCUBATION): active; positive | mutagenic call (Test System: AMES SALMONELLA TYPHIMURIUM, Strain/Indicator: TA2637, Metabolic Activation: RAT, LIVER, S-9, PHENOBARBITAL AND 5,6-BENZOFLAVONE, Method: PREINCUBATION): inactive; negative

CC(=O)ON(C(C)=O)c1ccc(/C=C\c2ccccc2)cc1
mutagenic call (Test System: UDS HUMAN CELLS, Strain/Indicator: THY INCORP (NON-S-PHASE), Metabolic Activation: NONE, Method: LIQUID SCINTILLATION COUNTING): active; positive | mutagenic call (Test System: UDS HUMAN FIBROBLASTS, Strain/Indicator: THY INCORP (NON-S-PHASE), Metabolic Activation: NONE, Method: AUTORADIOGRAPHY): active; positive

C[C@H](CCC(=O)O)[C@H]1CC[C@H]2[C@@H]3CC[C@@H]4CC(=O)CC[C@]4(C)[C@H]3C[C@H](O)[C@]12C
mutagenic call (Test System: AMES SALMONELLA TYPHIMURIUM, Strain/Indicator: TA98, Metabolic Activation: NONE, Method: FLUCTUATION TEST): inactive; negative | mutagenic call [4]: inactive; negative | mutagenic call (Test System: AMES SALMONELLA TYPHIMURIUM, Strain/Indicator: TA98, Metabolic Activation: RAT, LIVER, S-9, PCB, Method: PREINCUBATION): inactive; negative | mutagenic call (Test System: AMES SALMONELLA TYPHIMURIUM, Strain/Indicator: TA100, Metabolic Activation: NONE, Method: FLUCTUATION TEST): inactive; negative

O=C1C=C2C(=CCOC2O)O1 (stereo not drawn)
mutagenic call (End Point: In vitro micronucleus, Test System: Human hepatoma HepG2 cells, Metabolic Activation: None): active; positive. depletion of glutathione increased patulin-induced micronuclei frequen | mutagenic call (Test System: AMES SALMONELLA TYPHIMURIUM, Strain/Indicator: TA98, Metabolic Activation: RAT, LIVER, MICROSOMES, PHENOBARBITAL, Method: STANDARD PLATE): inactive; negative | mutagenic call [1]: inactive; negative | mutagenic call (Test System: AMES SALMONELLA TYPHIMURIUM, Strain/Indicator: TA100, Metabolic Activation: RAT, LIVER, MICROSOMES, PHENOBARBITAL, Method: STANDARD PLATE): inactive; negative | mutagenic call (Test System: AMES SALMONELLA TYPHIMURIUM, Strain/Indicator: TA100, Metabolic Activation: RAT, LIVER, S-9, PHENOBARBITAL, Method: PREINCUBATION): inactive; negative | mutagenic call (Test System: AMES SALMONELLA TYPHIMURIUM, Strain/Indicator: TA102, Metabolic Activation: NONE, Method: STANDARD PLATE): inactive; negative | mutagenic call (Test System: AMES SALMONELLA TYPHIMURIUM, Strain/Indicator: TA102, Metabolic Activation: RAT, LIVER, S-9, AROCLOR 1254, Method: STANDARD PLATE): inactive; negative

C[C@H]1CCC[C@@]2(C)CCCC[C@]12O
mutagenic call (Test System: AMES SALMONELLA TYPHIMURIUM, Strain/Indicator: TA98, Metabolic Activation: NONE, Method: STANDARD PLATE): inactive; negative | mutagenic call (Test System: AMES SALMONELLA TYPHIMURIUM, Strain/Indicator: TA98, Metabolic Activation: RAT, LIVER, S-9, AROCLOR 1254, Method: STANDARD PLATE): inactive; negative | mutagenic call (Test System: AMES SALMONELLA TYPHIMURIUM, Strain/Indicator: TA100, Metabolic Activation: NONE, Method: STANDARD PLATE): inactive; negative | mutagenic call (Test System: AMES SALMONELLA TYPHIMURIUM, Strain/Indicator: TA100, Metabolic Activation: RAT, LIVER, S-9, AROCLOR 1254, Method: STANDARD PLATE): inactive; negative

Cc1cc2cccc3ccc4c5ccccc5cc1c4c32
mutagenic call (Test System: AMES SALMONELLA TYPHIMURIUM, Strain/Indicator: TA100, Metabolic Activation: RAT, NADPH-FORTIFIED HOMOGENIZED HEPATOCYTES, AROCLOR 1254, Method: PREINCUBATION): active; positive

C[C@@H]1COc2c(N3CCN(C)CC3)c(F)cc3c(=O)c(C(=O)O)cn1c23
mutagenic call [4]: inactive; negative | mutagenic call (Test System: AMES SALMONELLA TYPHIMURIUM, Strain/Indicator: TA98, Metabolic Activation: RAT, LIVER, S-9, PHENOBARBITAL AND BETA-NAPHTHOFLAVONE, Method: PREINCUBATION): inactive; negative | mutagenic call [1]: inactive; negative | mutagenic call (Test System: AMES SALMONELLA TYPHIMURIUM, Strain/Indicator: TA100, Metabolic Activation: RAT, LIVER, S-9, PHENOBARBITAL AND BETA-NAPHTHOFLAVONE, Method: PREINCUBATION): inactive; negative | mutagenic call [2]: inactive; negative | mutagenic call (Test System: AMES SALMONELLA TYPHIMURIUM, Strain/Indicator: TA1535, Metabolic Activation: RAT, LIVER, S-9, PHENOBARBITAL AND BETA-NAPHTHOFLAVONE, Method: PREINCUBATION): inactive; negative | mutagenic call [3]: inactive; negative | mutagenic call (Test System: AMES SALMONELLA TYPHIMURIUM, Strain/Indicator: TA1537, Metabolic Activation: RAT, LIVER, S-9, PHENOBARBITAL AND BETA-NAPHTHOFLAVONE, Method: PREINCUBATION): inactive; negative | mutagenic call (Test System: E.COLI, Strain/Indicator: WP2 UVRA, Metabolic Activation: NONE, Method: PREINCUBATION): inactive; negative | mutagenic call (Test System: E.COLI, Strain/Indicator: WP2 UVRA, Metabolic Activation: RAT, LIVER, S-9, PHENOBARBITAL AND BETA-NAPHTHOFLAVONE, Method: PREINCUBATION): inactive; negative

CC(=O)N(O[C@@H]1O[C@H](CO)[C@@H](O)[C@H](O)[C@H]1O)c1ccc(Oc2ccc(Cl)cc2)cc1
mutagenic call (Test System: AMES SALMONELLA TYPHIMURIUM, Strain/Indicator: TA100, Metabolic Activation: GUINEA PIG, LIVER, MICROSOMAL FRACTION, PCB): active; positive | mutagenic call (Test System: AMES SALMONELLA TYPHIMURIUM, Strain/Indicator: TA100, Metabolic Activation: GUINEA PIG, LIVER, S-9, PCB): active; positive | mutagenic call (Test System: AMES SALMONELLA TYPHIMURIUM, Strain/Indicator: TA100, Metabolic Activation: GUINEA PIG, LIVER, S-105, PCB): inactive; negative

Oc1cc(Cl)c(Cl)c(Cl)c1O
mutagenic call (Test System: CHINESE HAMSTER V-79, Strain/Indicator: V-79/6-THIOGUANINE, Metabolic Activation: NONE, Method: STANDARD PLATE): inactive; negative

O=[N+]([O-])/C=C/c1ccco1
mutagenic call (End Point: IN VITRO MICRONUCLEUS, Test System: HUMAN LYMPHOCYTES, Metabolic Activation: NONE): inactive; negative | mutagenic call (End Point: IN VITRO MICRONUCLEUS, Test System: HUMAN LYMPHOCYTES, Metabolic Activation: S-9): inactive; negative | mutagenic call (End Point: IN VIVO MICRONUCLEUS, Test System: BONE MARROW, Species: MOUSE, Strain/Sex: CD-1/MALE, Route: INTRAPERITONEAL): inactive; negative | mutagenic call [4]: inactive; negative
